Earlier results in patent publication US12268663B2, “Method for treating pruritus” (Pruvyc Pharma, LLC, priority 2020, dated 2025).

Key:
[1] = target: histamine H1 receptor (Homo sapiens, UniProt P35367)
[2] = target: serotonin S2 receptor (Homo sapiens, UniProt P28223)
[3] = system: connective tissue mast cells

Sequence of histamine H1 receptor (P35367 whole entry): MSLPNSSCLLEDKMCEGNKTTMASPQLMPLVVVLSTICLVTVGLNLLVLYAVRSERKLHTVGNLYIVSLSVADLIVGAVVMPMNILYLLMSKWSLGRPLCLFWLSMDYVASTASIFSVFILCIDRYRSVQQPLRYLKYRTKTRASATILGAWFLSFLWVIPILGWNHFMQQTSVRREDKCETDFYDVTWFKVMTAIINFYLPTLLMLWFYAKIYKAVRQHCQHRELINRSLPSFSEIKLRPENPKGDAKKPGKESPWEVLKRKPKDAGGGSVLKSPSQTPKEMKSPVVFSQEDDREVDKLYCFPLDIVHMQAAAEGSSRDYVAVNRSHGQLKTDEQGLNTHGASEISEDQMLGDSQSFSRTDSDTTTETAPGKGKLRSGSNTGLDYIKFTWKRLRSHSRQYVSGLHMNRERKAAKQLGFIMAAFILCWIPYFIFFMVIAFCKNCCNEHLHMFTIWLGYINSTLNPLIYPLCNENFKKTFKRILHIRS
Sequence of serotonin S2 receptor (P28223 whole entry): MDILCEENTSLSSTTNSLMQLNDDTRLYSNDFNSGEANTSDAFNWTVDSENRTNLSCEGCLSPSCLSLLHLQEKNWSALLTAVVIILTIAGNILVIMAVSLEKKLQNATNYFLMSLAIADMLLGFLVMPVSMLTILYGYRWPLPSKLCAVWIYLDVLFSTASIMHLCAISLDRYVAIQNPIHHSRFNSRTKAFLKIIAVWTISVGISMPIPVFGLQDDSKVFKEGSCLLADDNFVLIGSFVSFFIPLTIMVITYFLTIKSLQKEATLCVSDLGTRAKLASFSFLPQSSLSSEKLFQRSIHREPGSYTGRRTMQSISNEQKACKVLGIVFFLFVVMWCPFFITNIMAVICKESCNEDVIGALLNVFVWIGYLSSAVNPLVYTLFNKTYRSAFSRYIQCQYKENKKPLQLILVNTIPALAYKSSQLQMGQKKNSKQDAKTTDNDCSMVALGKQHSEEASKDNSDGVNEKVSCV

In the case of `CN(C)CC/C=C1/c2ccccc2COc2ccc(CC(=O)O)cc21` [Olopatadine, olopatadine], the “binding to histamine H1 receptor” value [1] is listed as “bind”, the “binding to serotonin S2 receptor” value [2] is listed as “bind” and the “allergic mediator release from connective tissue mast cells” value [3] is listed as “inhibits allergic mediator release”.
